The numbers were not newly measured in patent US20160228384A1, “EMULSION CONTAINING TWO OILS AND STABILIZERS” (NANOMEDEX, LLC, priority 2015, published 2016), which cites them from elsewhere.

Broadly, the Log P is a log measure of how a compound divides between an organic and an aqueous phase.

Test in data set [1]: not given
The source holds these as a separate data set.

For `CCCCCCCC(=O)OCC` [Ethyl octanoate], the “Log P” value is recorded as 3.5. Besides, in data set [1], the “Solubility in Water” value was 0.051 wt % and the “Water Solubility in Solvent” value was 0.90 wt %.
`CCCCOC(C)=O` [Butyl acetate]: the “Log P” value is 1.8. For the same compound, in data set [1], the “Solubility in Water” value is 0.64 wt % and the “Water Solubility in Solvent” value is 0.98 wt %.
Take `CCCCCC(=O)OCC` [Ethyl hexanoate]: the “Log P” value is given as 2.4. In addition, in data set [1], the “Solubility in Water” value is given as 0.083 wt % and the “Water Solubility in Solvent” value was 0.47 wt %.
Consider `CCCCCCOC(C)=O` [Hexyl acetate], for which the “Log P” value is on record as 2.4. Besides, in data set [1], the “Solubility in Water” value is 0.043 wt % and the “Water Solubility in Solvent” value is reported as 0.566 wt %.
In the case of `CCCCCCCCOC(C)=O` [Octyl acetate], the “Log P” value is 3.4. In data set [1], the “Solubility in Water” value was 0.018 wt % and the “Water Solubility in Solvent” value is recorded as 0.02 wt %.
In the case of `CCCC(=O)OCC` [Ethyl butyrate], the “Log P” value was 1.7. In addition, in data set [1], the “Solubility in Water” value is given as 0.69 wt % and the “Water Solubility in Solvent” value is given as 0.79 wt %.
